# “And” between values parts separate entries of the source, which are not always exact repeats. Identical values can stand only once. Like-named read-outs stand apart in the source and are kept apart here.
# Tests used:
# NF-κB = NF-κB nuclear translocation (immunofluorescence) in human intestinal organoids; assay type: cell-based; details: 25 μM, with cytokines
# Procedure: HIOs and Caco‐2 were exposed to a pro‐inflammatory cytokine cocktail (10 ng/ml IFN‐γ, 10 ng/ml TNF‐α, 50 ng/ml IL‐1β) for 2–24 h in combination with DMSO or FKK5 and FKK6 compounds (10 and 25 μm). Relative mRNA levels of IL‐8 and IL‐6 were determined using quantitative real‐time PCR, with normalization to GAPDH. RNA was isolated using an RNeasy Mini Kit (Qiagen) as per the manufacturer's instructions. On column DNase (Qiagen) was used to remove any contaminating DNA. Next, cDNA was formed using iScript cDNA Synthesis Kit (Bio‐Rad) and 100 ng RNA. qRT–PCR was performed with SsoAdvanced Universal SYBR Green Kit (Bio‐Rad). The following primers were used: IL‐8 Forward: […]; IL‐8 Reverse: […]; IL‐6 Forward: […]; IL‐6 Reverse: […]; GAPDH Forward: […]; GAPDH Reverse: […]. For immunofluorescent staining of NF‐ĸB translocation to the cell nucleus, HIOs and Caco‐2 cell monolayers were fixed in 4% formaldehyde (in 1 × PBS) overnight at 4°C. The formaldehyde was removed by washing with 1 × PBS, and an antigen retrieval step was performed by incubating in 10 mM sodium citrate buffer in a vegetable steamer for 20 min. The samples were then blocked with normal donkey serum (10% in PBS with 0.3% Triton X‐100) for 1 h. […]
# [1] = test system: CYP1A1, CYP3A4, MDR1 mRNA in LS180 cells; assay: qRT-PCR of CYP1A1, CYP3A4, MDR1 mRNA in LS180 cells with or without (mock) transfected PXR; details: for CYP1A1 mRNA induction: LS180 cells; for CYP1A1 mRNA fold to C / CYP3A4 mRNA fold to C / MDR-1 mRNA fold to C / MDR1 mRNA fold to C: normalised to GAPDH, fold to UT control
# Procedure: (§1) Cells or primary human hepatocytes from four different donors (HEP200529, HEP220932, HEP200533, and HEP200538) were incubated for 24 h with test compounds; the vehicle was DMSO (0.1% v/v). Total RNA was isolated using TRI Reagent® (Molecular Research Center, Ohio, USA). cDNA was synthesized from 1,000 ng of total RNA using M‐MuLV Reverse Transcriptase (New England Biolabs, Ipswich, Massachusetts, USA) at 42°C for 60 min in the presence of random hexamers (New England Biolabs). Quantitative reverse transcriptase–polymerase chain reaction (qRT–PCR) was performed using LightCycler® 480 Probes Master on a LightCycler® 480 II apparatus (Roche Diagnostic Corporation).
# (§2) The following protocol was used: An activation step at 95°C for 10 min was followed by 45 cycles of PCR (denaturation at 95°C for 10 s; annealing with elongation at 60°C for 30 s). The measurements were performed in triplicate. Gene expression was normalized per GAPDH as a housekeeping gene. […] Data are expressed as fold induction ± SD over the vehicle‐treated cells. The bar graph depicts one representative experiment of a series of experiments performed in three consecutive passages of cells. Differences were tested using one‐way ANOVA with Dunnett's post hoc test, and P < 0.05 was considered significant.
# S. typhimurium 14038 = assay: Salmonella invasion in iPSC-derived human intestinal organoids; assay type: cell-based, Salmonella typhimurium; details: for salmonella invasion vs cytokines alone: 2, 4, 6, 12 h; for basal salmonella invasion: 10 and 25 μM; for Salmonella CFU/ml: HIO, triplicate
# Procedure: FKK compounds were tested for their ability to prevent Salmonella invasion in vitro in non‐inflamed and inflamed cell cultures. Overnight cultures of S. typhimurium 14038 were diluted to OD600 0.01 and injected into with HIOs or immersed over Caco‐2 monolayers for 1 h at 37°C. The invasive ability of Salmonella was assessed using the gentamicin protection assay (Gagnon et al, 2013). Bacterial adhesion scenarios to the Caco‐2 surface were set up as described above. Non‐adhered bacteria were removed by washing twice in PBS, followed by incubation with 1 ml gentamicin (150 μg/ml in DMEM) for 1 h at 37°C to kill the adhered extracellular bacteria. Dead bacteria were removed by washing twice in PBS, followed by incubation with 500 μl 0.1% Triton X‐100 for 15 min at 37°C to lyse the HIOs and Caco‐2, and release the intracellular (invaded) bacteria. Serial fold dilutions and plating were then employed to determine CFU/ml. We normalized to total protein using Bradford assay.
# [2] = test system: CYP1A1, CYP3A4, MDR1 mRNA in HepaRG cells
# Procedure: Caco‐2 cells were purchased from ATCC, and authenticity was validated by multiplexed STR DNA (short tandem repeat deoxyribonucleic acid) profiling performed by Genetica. […] Cells were maintained at 37°C and 5% CO2 in a humidified incubator. […] Three HepaRG™‐derived cell lines, including 5F Clone control cells, and cells with targeted functional PXR and AhR gene knockouts, PXR‐KO and AhR‐KO, respectively, were purchased from Sigma (Czech Republic). Cells were handled according to the manufacturer's protocol. Human hepatocytes were purchased from Biopredic International (France) and Triangle Research Labs, LLC, Lonza (USA). Cultures were maintained in serum‐free medium at 37°C and 5% CO2 in a humidified incubator.
# The measurements were performed in triplicate.
# [3] = target: T1, Human constitutive androstane receptor (hCAR) (Homo sapiens, UniProt Q14994); assay: hCAR reporter activity in HEK293T cells; assay type: cell-based
# T1 construct: expressed in transfected cells; host or cells: HEK293T
# Procedure: Reverse transfection assays were performed in Caco‐2 cells as previously published with the following modifications (Kublbeck et al, 2015). 3.0 × 10^4 cells per well were transfected using pSG5‐PXR plasmid (300 ng/well), β‐Gal expression plasmid (600 ng/well), and CYP3A4‐luciferase reporter (500 ng/well) (Huang et al, 2007). After 24‐h transfection using Lipofectamine® LTX ([…] of plasmid), cells were exposed to FKK5 for 24 h. Cell lysates were prepared for β‐Gal and luciferase assays as previously published (Huang et al, 2007). The data are expressed as mean ± SD RLU (relative light units from luciferase assay) normalized to β‐Gal activity in the same well. Differences were tested using 2‐way ANOVA with Tukey's multiple comparison test, and P < 0.05 was considered significant (*). Standard transient transfection assays (PXR, CAR) in HEK293T cells were performed as previously published (Huang et al, 2007).
# [4] = test system: CYP1A1, CYP3A4, MDR1 mRNA in primary human hepatocytes; assay: qRT-PCR of CYP1A1, CYP3A4, MDR1 mRNA in primary human hepatocytes (four donors); details: for CYP1A1 mRNA fold to C / CYP3A4 mRNA fold to C / MDR-1 mRNA fold to C: primary human hepatocytes donor Hep200538, fold to UT control; for CYP1A1 mRNA fold to C / CYP3A4 mRNA fold to C / MDR-1 mRNA fold to C / CYP1A1 (1A1) mRNA, fold to C / CYP3A4 (3A4) mRNA, fold to C / MDR1 mRNA fold to C / MDR-1 mRNA, fold to C: normalised to GAPDH; for CYP1A1 (1A1) mRNA, fold to C / CYP3A4 (3A4) mRNA, fold to C / MDR1 mRNA fold to C / MDR-1 mRNA, fold to C: primary human hepatocytes, fold vs untreated (UT)
# Procedure: as §1, §2
# [5] = compound 10µm, no cytokines, 4 hr
# [6] = cytokines + compound 10µm, 12 hr
# T1 sequence (Q14994 whole entry): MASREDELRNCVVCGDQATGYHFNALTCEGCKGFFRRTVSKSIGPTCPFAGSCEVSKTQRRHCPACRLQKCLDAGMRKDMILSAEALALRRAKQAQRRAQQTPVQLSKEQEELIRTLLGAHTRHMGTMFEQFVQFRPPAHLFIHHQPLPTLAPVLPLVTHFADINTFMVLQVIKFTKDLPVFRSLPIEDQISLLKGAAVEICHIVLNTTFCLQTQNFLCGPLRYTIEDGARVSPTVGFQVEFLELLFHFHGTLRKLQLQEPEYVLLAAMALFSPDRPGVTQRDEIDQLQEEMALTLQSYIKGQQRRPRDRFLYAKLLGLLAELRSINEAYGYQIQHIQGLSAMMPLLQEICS
structure (smiles),measurement,setting,value
"O=C(c1ccncc1)c1cc2ccccc2n1S(=O)(=O)c1ccccc1 [FKK5, (1-(phenylsulfonyl)-1H-indol-2-yl)(pyridin-4-yl)methanone]",NF-κB localisation,NF-κB,increased cytoplasmic
same,CYP1A1 mRNA induction,[1],did not induce
same,CYP1A1 mRNA fold to C,[1]; PXR-transfected LS180 cells,1.86
same,CYP3A4 mRNA fold to C,[1]; PXR-transfected LS180 cells,3.69
same,MDR-1 mRNA fold to C,[1]; PXR-transfected LS180 cells,4.10
same,CYP1A1 mRNA fold to C,[1]; mock-transfected LS180 cells,8.19
same,CYP3A4 mRNA fold to C,[1]; mock-transfected LS180 cells,0.94
same,MDR1 mRNA fold to C,[1]; mock-transfected LS180 cells,3.80
same,salmonella invasion vs cytokines alone,S. typhimurium 14038,significantly reduced
same,basal salmonella invasion,S. typhimurium 14038,no significant effect
same,Salmonella CFU/ml,S. typhimurium 14038; [5],557 CFU/ml and 514 CFU/ml and 578 CFU/ml
same,Salmonella CFU/ml,"S. typhimurium 14038; compound 10µm, no cytokines, 12 hr",447 CFU/ml and 508 CFU/ml and 480 CFU/ml
same,Salmonella CFU/ml,S. typhimurium 14038; [6],459 CFU/ml and 469 CFU/ml and 548 CFU/ml
same,Salmonella CFU/ml,"S. typhimurium 14038; cytokines + compound 25µm, 12 hr",474 CFU/ml and 339 CFU/ml and 439 CFU/ml
same,CYP1A1 mRNA induction,[2],did not induce
same,CYP3A4 mRNA induction,[2],HepaRG™ AhR‐KO cells
same,"CYP1A1 (1A1) mRNA, fold to C","[2]; human, 24 h",0.81 fold
same,"CYP3A4 (3A4) mRNA, fold to C","[2]; human, 24 h",1.92 fold
same,MDR1 mRNA fold to C,"[2]; human, 24 h",1.03 fold
same,MDR-1 mRNA fold to C,"[2]; human, 24 h",1.25 fold
same,"MDR-1 mRNA, fold to C","[2]; human, 24 h",0.96 fold
same,CAR activity induction,[3],did not induce
same,CYP1A1 mRNA induction,[4]; four donors,did not
same,CYP1A1 mRNA fold to C,[4],1.13
same,CYP3A4 mRNA fold to C,[4],0.84
same,MDR-1 mRNA fold to C,[4],0.52
same,"CYP1A1 (1A1) mRNA, fold to C",[4]; donor Hep200529,1.12 fold
same,"CYP3A4 (3A4) mRNA, fold to C",[4]; donor Hep200529,0.73 fold
same,MDR1 mRNA fold to C,[4]; donor Hep200529,0.93 fold
same,"CYP1A1 (1A1) mRNA, fold to C",[4]; donor Hep200533,1.51 fold
same,"CYP3A4 (3A4) mRNA, fold to C",[4]; donor Hep200533,1.03 fold
same,"MDR-1 mRNA, fold to C",[4]; donor Hep200533,1.05 fold
same,"CYP1A1 (1A1) mRNA, fold to C",[4]; donor Hep220932,0.39 fold
same,"CYP3A4 (3A4) mRNA, fold to C",[4]; donor Hep220932,0.50 fold
same,"MDR-1 mRNA, fold to C",[4]; donor Hep220932,0.35 fold
C#CCC(O)(c1ccncc1)c1cc2ccccc2n1S(=O)(=O)c1ccccc1 (centres unmarked) [FKK6],NF-κB localisation,NF-κB,increased cytoplasmic
same,CYP1A1 mRNA induction,[1],did not induce
same,CYP3A4 mRNA induction,[1]; PXR-transfected LS180 cells,induced
same,MDR1 mRNA induction,[1]; PXR-transfected LS180 cells,induced
same,CYP1A1 mRNA fold to C,[1]; PXR-transfected LS180 cells,2.02
same,CYP3A4 mRNA fold to C,[1]; PXR-transfected LS180 cells,18.02
same,MDR-1 mRNA fold to C,[1]; PXR-transfected LS180 cells,10.37
same,CYP1A1 mRNA fold to C,[1]; mock-transfected LS180 cells,4.61
same,CYP3A4 mRNA fold to C,[1]; mock-transfected LS180 cells,1.10
same,MDR1 mRNA fold to C,[1]; mock-transfected LS180 cells,5.17
same,salmonella invasion vs cytokines alone,S. typhimurium 14038,significantly reduced
same,basal salmonella invasion,S. typhimurium 14038,no significant effect
same,Salmonella CFU/ml,S. typhimurium 14038; [5],370 CFU/ml and 296 CFU/ml and 591 CFU/ml
same,Salmonella CFU/ml,"S. typhimurium 14038; compound 25µm, no cytokines, 6 hr",277 CFU/ml and 280 CFU/ml and 238 CFU/ml
same,Salmonella CFU/ml,"S. typhimurium 14038; cytokines + compound 10µm, 2 hr",234 CFU/ml and 133 CFU/ml and 134 CFU/ml
same,Salmonella CFU/ml,S. typhimurium 14038; [6],362 CFU/ml and 381 CFU/ml and 340 CFU/ml
same,Salmonella CFU/ml,"S. typhimurium 14038; cytokines + compound 25µm, 2 hr",193 CFU/ml and 132 CFU/ml and 164 CFU/ml
same,Salmonella CFU/ml,"S. typhimurium 14038; cytokines + compound 25µm, 4 hr",200 CFU/ml and 140 CFU/ml and 164 CFU/ml
same,Salmonella CFU/ml,"S. typhimurium 14038; cytokines + compound 25µm, 6 hr",189 CFU/ml and 151 CFU/ml and 140 CFU/ml
same,CYP1A1 mRNA induction,[2],did not induce
same,MDR-1 mRNA fold to C,"[2]; HepaRG AHR-KO, normalised to GAPDH, fold vs UT",1.31 fold
same,"CYP1A1 (1A1) mRNA, fold to C","[2]; human, 24 h",8.33 fold
same,"CYP3A4 (3A4) mRNA, fold to C","[2]; human, 24 h",2.91 fold
same,CYP3A4 mRNA induction,"[2]; human, 24 h",only in HepaRG™ control 5F clone
same,MDR1 mRNA fold to C,"[2]; human, 24 h",1.04 fold
same,"MDR-1 mRNA, fold to C","[2]; human, 24 h",0.98 fold
same,CAR activity induction,[3],did not induce
same,CYP1A1 mRNA induction,[4]; four donors,did not
same,CYP3A4 mRNA induction,[4]; four donors,more than twofold induction in one of four hepatocyte samples
same,MDR1 mRNA induction,[4]; four donors,MDR1 mRNA induction in one of four hepatocyte samples
same,CYP1A1 mRNA fold to C,[4],15.94
same,CYP3A4 mRNA fold to C,[4],6.17
same,MDR-1 mRNA fold to C,[4],0.95
same,"CYP1A1 (1A1) mRNA, fold to C",[4]; donor Hep200529,6.44 fold
same,"CYP3A4 (3A4) mRNA, fold to C",[4]; donor Hep200529,2.67 fold
same,MDR1 mRNA fold to C,[4]; donor Hep200529,1.52 fold
same,"CYP1A1 (1A1) mRNA, fold to C",[4]; donor Hep200533,3.26 fold
same,"CYP3A4 (3A4) mRNA, fold to C",[4]; donor Hep200533,2.13 fold
same,"MDR-1 mRNA, fold to C",[4]; donor Hep200533,2.03 fold
same,"CYP1A1 (1A1) mRNA, fold to C",[4]; donor Hep220932,0.76 fold
same,"CYP3A4 (3A4) mRNA, fold to C",[4]; donor Hep220932,0.97 fold
same,"MDR-1 mRNA, fold to C",[4]; donor Hep220932,0.40 fold

# Reference: publication PMC7136958, “Targeting the pregnane X receptor using microbial metabolite mimicry” (EMBO Molecular Medicine, 2020)
